Test results as given in article PMC4286029 (Inflammation Research, 2014).

What was measured:
Type in all cases: biochemical
p70S6 K = biological target: T1, p70S6 K (Homo sapiens, UniProt P23443); test: KinaseProfiler selectivity: p70S6 K
T1 construct: purchased Millipore Co. Ltd. (KinaseProfiler service)
Protocol: (§1) […]; The selectivity of JTE-052 for other kinases was assessed using KinaseProfiler™ (Millipore Co. Ltd.). […].

FGFR1 = biological target: T2, FGFR1 (Homo sapiens, UniProt P11362); test: KinaseProfiler selectivity: FGFR1
T2 construct: purchased Millipore Co. Ltd. (KinaseProfiler service)
Protocol: as §1

PKCγ = biological target: T3, PKCγ (Homo sapiens, UniProt P05129); test: KinaseProfiler selectivity: PKCγ
T3 construct: purchased Millipore Co. Ltd. (KinaseProfiler service)
Protocol: as §1

SAPK2a = biological target: T4, SAPK2a (Homo sapiens, UniProt Q16539); test: KinaseProfiler selectivity: SAPK2a
T4 construct: purchased Millipore Co. Ltd. (KinaseProfiler service)
T4 sequence (Q16539 whole entry, species assumed): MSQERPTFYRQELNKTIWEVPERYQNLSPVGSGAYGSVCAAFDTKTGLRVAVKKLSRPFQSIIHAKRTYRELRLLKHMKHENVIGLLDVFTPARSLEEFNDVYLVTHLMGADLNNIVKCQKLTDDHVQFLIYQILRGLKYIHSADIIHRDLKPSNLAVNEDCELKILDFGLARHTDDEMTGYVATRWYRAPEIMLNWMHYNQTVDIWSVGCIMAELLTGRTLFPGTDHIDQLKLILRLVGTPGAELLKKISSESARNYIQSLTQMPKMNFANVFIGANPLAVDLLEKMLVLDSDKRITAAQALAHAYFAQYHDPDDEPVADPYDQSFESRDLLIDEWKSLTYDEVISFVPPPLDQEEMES
Protocol: as §1

cKit = biological target: T5, cKit (Homo sapiens, UniProt P10721); test: KinaseProfiler selectivity: cKit
T5 construct: purchased Millipore Co. Ltd. (KinaseProfiler service)
T5 sequence (P10721 26-976): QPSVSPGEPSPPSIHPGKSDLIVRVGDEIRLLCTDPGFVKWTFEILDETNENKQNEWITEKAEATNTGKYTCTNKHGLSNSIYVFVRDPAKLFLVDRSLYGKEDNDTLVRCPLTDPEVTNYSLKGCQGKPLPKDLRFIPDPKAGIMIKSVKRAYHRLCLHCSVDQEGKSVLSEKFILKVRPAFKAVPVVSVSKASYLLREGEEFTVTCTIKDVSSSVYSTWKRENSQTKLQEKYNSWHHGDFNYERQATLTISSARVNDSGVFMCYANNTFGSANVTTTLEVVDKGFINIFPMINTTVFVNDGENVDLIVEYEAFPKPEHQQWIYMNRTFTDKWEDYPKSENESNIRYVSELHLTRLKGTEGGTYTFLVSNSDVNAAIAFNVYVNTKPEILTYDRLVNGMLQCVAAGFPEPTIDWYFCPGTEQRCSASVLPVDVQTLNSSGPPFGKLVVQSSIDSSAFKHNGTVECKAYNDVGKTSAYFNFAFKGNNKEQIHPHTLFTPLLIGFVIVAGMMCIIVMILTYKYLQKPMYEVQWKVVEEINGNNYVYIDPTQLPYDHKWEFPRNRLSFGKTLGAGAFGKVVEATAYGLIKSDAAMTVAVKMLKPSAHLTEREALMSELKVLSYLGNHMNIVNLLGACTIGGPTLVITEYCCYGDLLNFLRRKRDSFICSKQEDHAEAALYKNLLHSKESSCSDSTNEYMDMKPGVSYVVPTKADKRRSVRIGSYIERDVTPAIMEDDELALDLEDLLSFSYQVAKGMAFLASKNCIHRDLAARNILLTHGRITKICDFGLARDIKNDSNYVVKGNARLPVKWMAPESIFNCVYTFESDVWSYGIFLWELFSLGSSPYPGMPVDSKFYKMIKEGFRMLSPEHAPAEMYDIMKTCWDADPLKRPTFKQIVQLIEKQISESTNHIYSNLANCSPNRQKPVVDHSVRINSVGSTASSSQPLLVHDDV
Protocol: as §1

Syk = biological target: T6, Syk (Homo sapiens, UniProt P43405); test: KinaseProfiler selectivity: Syk
T6 construct: purchased Millipore Co. Ltd. (KinaseProfiler service)
Protocol: as §1

PDGFRβ = biological target: T7, PDGFRβ (Homo sapiens, UniProt P09619); test: KinaseProfiler selectivity: PDGFRβ
T7 construct: purchased Millipore Co. Ltd. (KinaseProfiler service)
T7 sequence (P09619 33-1106, species assumed): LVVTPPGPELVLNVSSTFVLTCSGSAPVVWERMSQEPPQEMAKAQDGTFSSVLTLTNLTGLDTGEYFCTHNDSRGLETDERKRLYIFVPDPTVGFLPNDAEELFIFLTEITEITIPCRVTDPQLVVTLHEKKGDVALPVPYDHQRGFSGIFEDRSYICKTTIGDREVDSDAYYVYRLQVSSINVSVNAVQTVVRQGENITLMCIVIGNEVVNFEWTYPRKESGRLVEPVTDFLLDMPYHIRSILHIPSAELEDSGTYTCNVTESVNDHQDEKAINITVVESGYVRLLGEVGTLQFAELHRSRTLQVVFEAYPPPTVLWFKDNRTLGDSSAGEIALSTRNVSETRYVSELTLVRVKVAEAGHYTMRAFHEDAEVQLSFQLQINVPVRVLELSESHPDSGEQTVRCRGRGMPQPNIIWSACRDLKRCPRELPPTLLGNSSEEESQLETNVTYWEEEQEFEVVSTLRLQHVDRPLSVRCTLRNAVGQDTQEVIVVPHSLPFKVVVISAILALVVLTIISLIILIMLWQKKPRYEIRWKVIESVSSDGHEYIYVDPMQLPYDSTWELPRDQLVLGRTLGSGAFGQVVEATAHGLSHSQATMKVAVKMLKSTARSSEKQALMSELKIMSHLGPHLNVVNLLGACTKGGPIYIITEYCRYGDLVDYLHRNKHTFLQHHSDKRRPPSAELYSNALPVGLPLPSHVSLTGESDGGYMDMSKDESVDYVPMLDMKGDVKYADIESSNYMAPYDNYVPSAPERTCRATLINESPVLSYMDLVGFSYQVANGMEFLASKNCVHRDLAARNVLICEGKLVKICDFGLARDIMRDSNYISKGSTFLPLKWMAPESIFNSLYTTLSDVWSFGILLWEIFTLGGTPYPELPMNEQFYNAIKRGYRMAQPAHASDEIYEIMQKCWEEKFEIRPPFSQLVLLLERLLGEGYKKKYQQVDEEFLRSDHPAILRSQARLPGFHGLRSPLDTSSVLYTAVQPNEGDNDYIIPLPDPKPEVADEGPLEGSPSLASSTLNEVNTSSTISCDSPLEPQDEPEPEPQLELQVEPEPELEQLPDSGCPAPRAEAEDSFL
Protocol: as §1

PKA = biological target: T8, PKA (Homo sapiens, UniProt P17612); test: KinaseProfiler selectivity: PKA
T8 construct: purchased Millipore Co. Ltd. (KinaseProfiler service)
Protocol: as §1

JNK3 = biological target: T9, JNK3 (Homo sapiens, UniProt P53779); test: KinaseProfiler selectivity: JNK3
T9 construct: purchased Millipore Co. Ltd. (KinaseProfiler service)
T9 sequence (P53779 whole entry, species assumed): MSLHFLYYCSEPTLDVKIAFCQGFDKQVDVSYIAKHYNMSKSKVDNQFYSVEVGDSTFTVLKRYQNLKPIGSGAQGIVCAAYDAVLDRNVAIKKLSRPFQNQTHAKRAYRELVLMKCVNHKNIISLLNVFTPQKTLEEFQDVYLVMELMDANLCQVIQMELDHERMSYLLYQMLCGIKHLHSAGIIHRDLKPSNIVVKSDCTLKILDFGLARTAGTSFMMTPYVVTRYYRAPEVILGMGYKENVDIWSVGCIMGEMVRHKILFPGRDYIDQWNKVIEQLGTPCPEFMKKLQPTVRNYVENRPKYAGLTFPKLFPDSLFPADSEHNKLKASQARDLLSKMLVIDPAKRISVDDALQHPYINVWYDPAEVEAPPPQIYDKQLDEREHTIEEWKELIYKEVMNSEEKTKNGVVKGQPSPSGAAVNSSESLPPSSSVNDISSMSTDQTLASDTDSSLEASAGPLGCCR
Protocol: as §1

Fyn = biological target: T10, Fyn (Homo sapiens, UniProt P06241); test: KinaseProfiler selectivity: Fyn
T10 construct: purchased Millipore Co. Ltd. (KinaseProfiler service)
Protocol: as §1

SAPK3 = biological target: T11, SAPK3 (Homo sapiens, UniProt P53778); test: KinaseProfiler selectivity: SAPK3
T11 construct: purchased Millipore Co. Ltd. (KinaseProfiler service)
T11 sequence (P53778 whole entry, species assumed): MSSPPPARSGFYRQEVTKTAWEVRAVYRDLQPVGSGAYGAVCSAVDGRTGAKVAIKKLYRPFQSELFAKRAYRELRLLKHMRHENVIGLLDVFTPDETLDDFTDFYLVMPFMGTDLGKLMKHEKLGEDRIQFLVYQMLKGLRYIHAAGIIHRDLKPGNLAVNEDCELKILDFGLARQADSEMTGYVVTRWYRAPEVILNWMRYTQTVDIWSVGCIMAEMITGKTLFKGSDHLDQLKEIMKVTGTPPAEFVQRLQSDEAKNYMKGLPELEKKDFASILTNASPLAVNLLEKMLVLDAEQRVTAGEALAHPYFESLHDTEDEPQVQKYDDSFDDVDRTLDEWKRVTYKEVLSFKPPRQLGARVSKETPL
Protocol: as §1

PKCζ = biological target: T12, PKCζ (Homo sapiens, UniProt Q05513); test: KinaseProfiler selectivity: PKCζ
T12 construct: purchased Millipore Co. Ltd. (KinaseProfiler service)
T12 sequence (Q05513 whole entry): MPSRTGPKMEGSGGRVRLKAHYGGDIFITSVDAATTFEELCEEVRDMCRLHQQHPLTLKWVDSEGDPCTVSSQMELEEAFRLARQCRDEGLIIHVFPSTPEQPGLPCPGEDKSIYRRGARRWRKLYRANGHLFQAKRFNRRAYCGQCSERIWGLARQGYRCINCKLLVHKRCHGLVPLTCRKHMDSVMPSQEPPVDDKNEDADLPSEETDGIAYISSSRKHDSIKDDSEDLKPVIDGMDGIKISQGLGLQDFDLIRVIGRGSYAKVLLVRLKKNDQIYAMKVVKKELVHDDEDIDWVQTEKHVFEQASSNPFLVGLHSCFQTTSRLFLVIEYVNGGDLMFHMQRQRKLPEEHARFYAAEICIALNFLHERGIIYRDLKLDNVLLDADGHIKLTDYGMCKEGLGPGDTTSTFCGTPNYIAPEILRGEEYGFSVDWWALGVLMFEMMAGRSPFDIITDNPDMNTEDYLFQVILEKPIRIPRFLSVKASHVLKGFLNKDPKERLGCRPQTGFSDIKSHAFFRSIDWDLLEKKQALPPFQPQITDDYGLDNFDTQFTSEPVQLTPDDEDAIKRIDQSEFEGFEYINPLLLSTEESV
Protocol: as §1

Lyn = biological target: T13, Lyn (Homo sapiens, UniProt P07948); test: KinaseProfiler selectivity: Lyn
T13 construct: purchased Millipore Co. Ltd. (KinaseProfiler service)
T13 sequence (P07948 whole entry, species assumed): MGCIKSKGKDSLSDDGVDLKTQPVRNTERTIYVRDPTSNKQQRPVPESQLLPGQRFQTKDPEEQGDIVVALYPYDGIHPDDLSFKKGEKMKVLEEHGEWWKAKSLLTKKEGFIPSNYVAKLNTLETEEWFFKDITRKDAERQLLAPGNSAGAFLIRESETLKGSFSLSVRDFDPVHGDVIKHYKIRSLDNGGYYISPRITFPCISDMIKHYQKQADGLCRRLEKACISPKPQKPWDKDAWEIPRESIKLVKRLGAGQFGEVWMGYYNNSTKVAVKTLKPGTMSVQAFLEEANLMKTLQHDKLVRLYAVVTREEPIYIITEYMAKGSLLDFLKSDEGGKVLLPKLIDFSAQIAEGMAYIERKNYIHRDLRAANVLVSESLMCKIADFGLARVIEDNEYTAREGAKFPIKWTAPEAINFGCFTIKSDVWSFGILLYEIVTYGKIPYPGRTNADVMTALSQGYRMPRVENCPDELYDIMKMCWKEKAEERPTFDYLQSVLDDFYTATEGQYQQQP
Protocol: as §1

cSRC = biological target: T14, cSRC (Homo sapiens, UniProt P12931); test: KinaseProfiler selectivity: cSRC
T14 construct: purchased Millipore Co. Ltd. (KinaseProfiler service)
Protocol: as §1

Measured: IC50

C[C@H]1CN(C(=O)CC#N)[C@]12CCN(c1ncnc3[nH]ccc13)C2 [JTE-052]
> 1 µM: all assays above
